In patent publication US8455663B2, “Halosubstituted aryloxyalkylimidazolines for use as pesticides” (Syngenta Crop Protection LLC, priority 2007, dated 2013):
Read-outs that look alike come from different tables or passages of the source.

Assays:
Format in all cases: in vivo
Heliothis virescens = Heliothis virescens (tobacco budworm) egg/larvae test on artificial diet; settings: for pest or weed control at 200 ppm: Heliothis virescens, 96 h, read-out: control of Heliothis virescens
Method: 4.1 Heliothis Virescens (Tobacco Budworm):
Eggs (0-24 h old) were placed in 24-well microtiter plate on artificial diet and treated with test solutions at an application rate of 200 ppm by pipetting. After an incubation period of 4 days, samples were checked for egg mortality, larval mortality, and growth regulation.

Tetranychus urticae = Tetranychus urticae (two-spotted spider mite) bean leaf disc spray test; settings: for pest or weed control at 200 ppm: Tetranychus urticae, foliar, 192 h, read-out: control of Tetranychus urticae
From the text: 4.4 Tetranychus Urticae (Two-Spotted Spider Mite):
4.4.1 Bean leaf discs on agar in 24-well microtiter plates were sprayed with test solutions at an application rate of 200 ppm. After drying, the leaf discs are infested with mite populations of mixed ages. 8 days later, discs are checked for egg mortality, larval mortality, and adult mortality.

Myzus persicae [1] = assay: Myzus persicae (green peach aphid) pea seedling root uptake test; settings: for pest or weed control at 24 ppm: Myzus persicae, 144 h, read-out: control of Myzus persicae
From the text: 4.3 Myzus Persicae (Green Peach Aphid):
Roots of pea seedlings, infested with an aphid population of mixed ages, were placed directly in the test solutions of 24 ppm. 6 days after introduction, samples were checked for mortality.

Myzus persicae [2] = assay: Myzus persicae (green peach aphid) sunflower leaf disc spray test; settings: for pest or weed control at 200 ppm: Myzus persicae, foliar, 144 h, read-out: control of Myzus persicae
Method: 4.2 Myzus Persicae (Green Peach Aphid):
Sunflower leaf discs were placed on agar in a 24-well microtiter plate and sprayed with test solutions at an application rate of 200 ppm. After drying, the leaf discs were infested with an aphid population of mixed ages. After an incubation period of 6 DAT, samples were checked for mortality.

T. Urticae = assay: Tetranychus urticae bean leaf disc test, comparison with prior art compounds A and B; settings: 12.5 ppm spray on bean leaf discs; mixed ages; 8 days; egg, larval and adult mortality
From the text: 4.4.2 In a further test, the efficacy of one of the compounds giving 100% control in Example 4.4.1 above was compared to the efficacy of imidazoline compounds from the prior art (compounds A and B).
Bean leaf discs on agar in 24-well microtiter plates were sprayed with test solutions at an application rate of 12.5 ppm. After drying, the leaf discs are infested with mite populations of mixed ages. 8 days later, discs are checked for egg mortality, larval mortality, and adult mortality.

[3] = 200 ppm by pipetting on eggs (0-24 h old) on artificial diet, 4 days, egg mortality, larval mortality, growth regulation
[4] = 200 ppm spray on bean leaf discs, mixed ages, 8 days, egg, larval and adult mortality
[5] = 24 ppm test solution, roots of infested pea seedlings, 6 days, mortality
[6] = 200 ppm spray on sunflower leaf discs, mixed ages, 6 DAT, mortality

SMILES	pest or weed control at 200 ppm (Heliothis virescens; [3]) [%]	pest or weed control at 200 ppm (Tetranychus urticae; [4]) [%]	pest or weed control at 24 ppm (Myzus persicae [1]; [5]) [%]	pest or weed control at 200 ppm (Myzus persicae [2]; [6]) [%]	also measured
CCCCC(Oc1cccc(C(F)(F)F)c1Cl)C1=NCCN1 (stereo not drawn) [Compound 1.027]	50	100	0	80	–
C#Cc1cccc(OC(CC)C2=NCCN2)c1Cl (stereo not drawn) [Compound 1.011, 2-[1-(2-Chloro-3-ethynyl-phenoxy)-propyl]-4,5-dihydro-1H-imidazole]	50	0	–	50	–
CCC(Oc1cccc(C#N)c1Cl)C1=NCCN1 (stereo not drawn) [Compound 1.024]	0	100	50	80	–
CC(Oc1cccc(C(F)(F)F)c1Cl)C1=NCCN1 (stereo not drawn) [Compound 1.014]	80	80	50	100	–
CCC(Oc1cccc(COC)c1Cl)C1=NCCN1 (stereo not drawn) [Compound 1.008]	–	–	–	–	control of Heliothis virescens (Heliothis virescens; [3]): 80%; control of Tetranychus urticae (Tetranychus urticae; [4]): 0%; control of Myzus persicae (Myzus persicae [2]; [6]): 0%
CCC(Oc1cccc(C)c1Cl)C1=NCCN1 (stereo not drawn) [B]	–	–	–	–	Control % (T. Urticae): 50%
CCC(Oc1cccc(C(F)F)c1Cl)C1=NCCN1 (stereo not drawn) [Compound 1.002, 2-[1-(2-Chloro-3-difluoromethyl-phenoxy)-propyl]-4,5-dihydro-1H-imidazole]	–	–	–	–	pest or weed control at 200 ppm (Heliothis virescens): 0%; pest or weed control at 200 ppm (Tetranychus urticae): 100%; pest or weed control at 24 ppm (Myzus persicae [1]): 80%; pest or weed control at 200 ppm (Myzus persicae [2]): 100%
C=Cc1cccc(OC(CC)C2=NCCN2C(=O)OC(C)(C)C)c1Cl (stereo not drawn) [Compound 1.017]	0	0	–	0	–
CCC(Oc1cccc(Cl)c1Cl)C1=NCCN1 (stereo not drawn) [A]	–	–	–	–	Control % (T. Urticae): 0%
CCC(Oc1cccc(C(F)(F)F)c1I)C1=NCCN1.O=C(O)/C=C\C(=O)O (stereo not drawn) [Compound 1.020]	–	–	–	–	control of Heliothis virescens (Heliothis virescens; [3]): 0%; control of Tetranychus urticae (Tetranychus urticae; [4]): 100%; control of Myzus persicae (Myzus persicae [1]; [5]): 80%; control of Myzus persicae (Myzus persicae [2]; [6]): 100%
CCCC(Oc1cccc(I)c1Br)C1=NCCN1 (stereo not drawn) [Compound 1.022]	50	80	–	100	–
CCCC(Oc1cccc(C(F)(F)F)c1Cl)C1=NCCN1 (stereo not drawn) [Compound 1.015]	–	–	–	–	control of Heliothis virescens (Heliothis virescens; [3]): 100%; control of Tetranychus urticae (Tetranychus urticae; [4]): 100%; control of Myzus persicae (Myzus persicae [1]; [5]): 50%; control of Myzus persicae (Myzus persicae [2]; [6]): 100%
CCC(Oc1cccc(C#N)c1Cl)C1=NCCN1C(=O)OC(C)(C)C (stereo not drawn) [Compound 1.025]	0	50	–	0	–
CCC(Oc1cccc(CF)c1Cl)C1=NCCN1 (stereo not drawn) [Compound 1.006]	100	100	80	100	–
CCC(Oc1cccc(C(F)(F)F)c1Cl)C1=NCCN1 (stereo not drawn) [Compound 1.001, 2-[1-(2-Chloro-3-trifluormethyl-phenoxy)-propyl]-4,5-dihydro-1H-imidazole]	50	100	100	100	Control % (T. Urticae): 80%
CC(Oc1cccc(C(F)F)c1Cl)C1=NCCN1 (stereo not drawn) [Compound 1.023]	80	0	0	100	–
CC(C)C(Oc1cccc(C(F)F)c1Cl)C1=NCCN1 (stereo not drawn) [Compound 1.030]	0	100	80	100	–

SMILES	pest or weed control at 200 ppm (Heliothis virescens; [3]) [%]	pest or weed control at 200 ppm (Tetranychus urticae; [4]) [%]	pest or weed control at 24 ppm (Myzus persicae [1]; [5]) [%]	pest or weed control at 200 ppm (Myzus persicae [2]; [6]) [%]	also measured
CCCC(Oc1cccc(C(F)F)c1Cl)C1=NCCN1 (stereo not drawn) [Compound 1.028]	80	100	100	100	–
CCCC(Oc1cccc(I)c1Cl)C1=NCCN1 (stereo not drawn) [Compound 1.033]	80	80	0	100	–
CCCC(Oc1cccc(Br)c1Cl)C1=NCCN1 (stereo not drawn) [Compound 1.036]	100	100	0	100	–
CCCC(Oc1cccc(CF)c1Cl)C1=NCCN1 (stereo not drawn) [Compound 1.031]	0	100	80	100	–
C=Cc1cccc(OC(CC)C2=NCCN2)c1Cl (stereo not drawn) [Compound 1.012]	0	0	–	0	–
CCCC(Oc1cccc(Br)c1Br)C1=NCCN1 (stereo not drawn) [Compound 1.021]	100	100	0	100	–
CCC(Oc1cccc(C[S+](C)[O-])c1Cl)C1=NCCN1 (stereo not drawn) [Compound 1.035]	–	–	–	–	control of Heliothis virescens (Heliothis virescens; [3]): 0%; control of Tetranychus urticae (Tetranychus urticae; [4]): 0%; control of Myzus persicae (Myzus persicae [2]; [6]): 0%
CCCCC(Oc1cccc(C(F)F)c1Cl)C1=NCCN1 (stereo not drawn) [Compound 1.029]	80	–	–	–	–
CCC(Oc1cccc(CSC)c1Cl)C1=NCCN1 (stereo not drawn) [Compound 1.019]	–	–	–	–	control of Heliothis virescens (Heliothis virescens; [3]): 0%; control of Tetranychus urticae (Tetranychus urticae; [4]): 0%; control of Myzus persicae (Myzus persicae [2]; [6]): 0%
CC(C)C(Oc1cccc(CF)c1Cl)C1=NCCN1 (stereo not drawn) [Compound 1.037]	80	100	50	100	–
CCC(Oc1cccc(CCl)c1Cl)C1=NCCN1C(=O)OC(C)(C)C (stereo not drawn) [Compound 1.034]	–	–	–	–	control of Heliothis virescens (Heliothis virescens; [3]): 100%; control of Tetranychus urticae (Tetranychus urticae; [4]): 0%; control of Myzus persicae (Myzus persicae [2]; [6]): 0%
CC(C)C(Oc1cccc(C(F)(F)F)c1Cl)C1=NCCN1 (stereo not drawn) [Compound 1.016]	0	100	80	100	–
CCCCC(Oc1cccc(CF)c1Cl)C1=NCCN1 (stereo not drawn) [Compound 1.032]	0	0	50	100	–
CCC(Oc1cccc(CO)c1Cl)C1=NCCN1 (stereo not drawn) [Compound 1.005]	0	0	0	0	–
CCC(Oc1cccc(CO)c1Cl)C1=NCCN1C(=O)OC(C)(C)C (stereo not drawn) [Compound 1.007]	0	0	–	0	–
CCC(Oc1cccc(C(F)F)c1Cl)C1=NCCN1C(=O)OC(C)(C)C (stereo not drawn) [Compound 1.003]	0	0	0	100	–
